Laboratory results taken from US7265154B2, “Valproic acid and derivatives thereof as histone deacetylase inhibitors” (Georg-Speyter-Haus Chemotherapeutisches Forschungsinstitut, priority 2000, dated 2007).
Values joined by “and” are separate entries in the source; they are usually repeats but may differ in a detail not shown here. Equal entries are not always repeated. Square brackets hold non-standard residues; d marks the D form. Peptide text beside a SMILES is read from it. Aoe = N[C@@H](CCCCCC(=O)[C@@H]1CO1)C(=O)O

How the values were obtained:
[1] = tested on: Gal4 fusion proteins of TR, PPARδ, RAR, N—CoR and AML/ETO in Hela cells; test: Gal4 fusion protein transcriptional repression assay, UAS TK luciferase reporter; type: cell-based; details: 24 h, VPA 1 mM, Trapoxin 10 nM, TSA 100 nM
Description: The transcriptional assay for repressor activity exploits activation and derepression of a Gal4-dependent reporter gene. This assay can be performed either by transient transfection of mammalian cell lines (e.g. HeLa, 293T, CV-1) or with specifically constructed permanent cell lines. Transcription factors such as thyroid hormone receptor, PPARδ, retinoic acid receptor, N—COR and AML/ETO repress transcription when they bind to a promoter containing UAS elements as fusion proteins with the heterologous DNA-binding domain of the yeast Gal4 protein. […] HDAC inhibitors induce relief of this repression which can be detected as an increase in reporter gene activity (e.g. by luciferase assay).
The transcription factors thyroid hormone receptor (TR), peroxisome proliferator activated receptor □ (PPARδ), retinoic acid receptor (RAR), the corepressor N—CoR and the AML/ETO fusion protein repress transcription when they bind to a promoter containing UAS sites (Gal4 response element) as fusion proteins with the heterologous DNA binding domain of the yeast Gal4 protein. […] Transcriptional repression is measured as luciferase activity relative to the baseline of cells transfected with an expression plasmid for the Gal4 DNA binding domain alone (FIG. 2).

[2] = tested on: histones H3 and H4 in F9 cells; test: Accumulation of hyperacetylated histones H3 and H4, Western blot; type: cell-based; details: whole cell extracts, VPA in the range of therapeutic serum levels, 16 h
Excerpt: Histone deacetylase inhibitors induce the accumulation of N-terminally hyperacetylated histones H3 and H4. These acetylated histones can be detected by Western blot analysis of whole cell extracts or of histone preparations from histone deacetylase inhibitor-treated cells using antibodies specific for the acetylated N-terminal lysine residues of histones H3 and H4.
These acetylated histones can be detected by Western blot analysis in cell extracts of appropriately treated cells.
(A) For the time course analysis F9 cells were seeded into 6-well culture dishes 30 h before the intended time point of analysis. […] DNA of collected samples was sheared by sonication and samples were separated on a 15% denaturing polyacrylamide gel. Acetylated histones H3 and histone H4 were detected by Western blot analysis using commercially available antibodies (Upstate Biotechnology) specific for the acetylated forms of histones (Ac-H3, Cat-Nr.: 06-599; Ac-H4, Cat-Nr.: 06-598). Equal loading of the lanes was confirmed by staining a part of the polyacrylamide gel by Coomassie blue.
Whole cell extracts were prepared 16 h after treatment as described above. Analysis for acetylated histones H3 and H4 was performed as described in (A).

[3] = biological target: T1, PPARδ ligand binding domain (glucocorticoid receptor hybrid) (UniProt P04150+P35396); test: PPARδ-glucocorticoid receptor hybrid reporter gene assay (alkaline phosphatase) in CHO cells; type: cell-based; details: 40 h, cPGI 5 μM with VPA 1 or 2 mM or TSA 300 nM
T1 construct: expressed in transfected cells; host or cells: CHO subclone with MMTV-LTR alkaline phosphatase reporter
T1 sequence (P04150+P35396 with tags, fused parts or gaps): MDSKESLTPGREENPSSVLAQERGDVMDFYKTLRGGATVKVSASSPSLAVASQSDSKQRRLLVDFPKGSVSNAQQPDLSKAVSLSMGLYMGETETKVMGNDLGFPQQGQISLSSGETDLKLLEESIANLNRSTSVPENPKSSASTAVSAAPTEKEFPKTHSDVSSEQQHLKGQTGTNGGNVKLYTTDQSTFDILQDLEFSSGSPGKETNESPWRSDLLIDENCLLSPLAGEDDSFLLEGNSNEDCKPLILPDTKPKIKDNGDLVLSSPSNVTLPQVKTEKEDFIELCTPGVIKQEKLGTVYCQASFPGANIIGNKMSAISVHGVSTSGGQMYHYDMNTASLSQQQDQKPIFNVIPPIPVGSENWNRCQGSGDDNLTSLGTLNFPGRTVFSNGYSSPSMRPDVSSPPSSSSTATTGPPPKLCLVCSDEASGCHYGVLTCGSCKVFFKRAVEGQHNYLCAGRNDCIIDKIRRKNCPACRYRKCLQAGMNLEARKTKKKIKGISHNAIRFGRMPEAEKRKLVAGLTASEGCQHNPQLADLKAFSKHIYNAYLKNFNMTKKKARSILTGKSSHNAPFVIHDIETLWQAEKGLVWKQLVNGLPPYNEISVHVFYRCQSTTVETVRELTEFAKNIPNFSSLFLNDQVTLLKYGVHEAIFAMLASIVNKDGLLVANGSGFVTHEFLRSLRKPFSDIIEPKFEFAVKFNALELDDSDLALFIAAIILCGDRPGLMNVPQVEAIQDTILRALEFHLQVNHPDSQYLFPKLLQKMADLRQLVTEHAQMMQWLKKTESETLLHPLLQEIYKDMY
Description: A reporter gene cell line for activation of the PPARδ ligand binding domain was constructed in CHO cells. […] Activation of the PPARδ ligand binding domain in these cells induces expression of the alkaline phosphatase reporter gene which is detectable by an enzymatic assay from the cell culture supernatant. […] Reporter gene activity was monitored by an enzymatic assay (alkaline phosphatase).

F9 teratocarcinoma cells [4] = test: Nuclear AP-2 protein as differentiation marker, Western blot; type: cell-based; details: 48 h; VPA 1 mM, sodium butyrate 1 mM, trichostatin A 30 nM
Excerpt: Nuclear extracts were separated on a 9% SDS polyacrylamide gel. AP-2 protein was detected by Western blot analysis using a rabbit polyclonal antibody (Santa Cruz, Cat.-No.: SC-184) at a dilution of 1/1000 in Tris buffered saline containing 3% non-fat dry milk and 0.05% Tween 20.

PC-3 cells = test: Morphological evaluation for differentiation, PC-3; type: cell-based, human; details: VPA treatment
Description: (§1) The reduction in biomass could indicate cell loss due to cell death and/or differentiation associated cell cycle arrest. Quantitative parameters, e.g. the loss of biomass, was determined in 30 human cancer cell lines (FIG. 8 e) and twelve examples of dose-response curves are shown, e.g. BT-549 breast cancer cells (1), estrogen dependent ZR-75 breast cancer cells (2), DMS-114 small cell lung cancer cells (3), NCl—H226 non-small cell lung cancer cells (4), SK-MEL-28 skin cancer cells (5), OVCAR-3 ovarian cancer cells (6), HUP-T3 pancreatic cancer cells (7), DU-145 prostate cancer cells (8), DETROIT-562 head and neck cancer cells, LS-174 colon cancer cells (10), A-172 brain cancer cells (11) and HL-60 leukemia cells (12) (FIGS. 8a-d). All cells were evaluated for morphological signs of cell death and/or differentiation.

[5] = tested on: DU-145 prostate cancer cells; test: Morphological evaluation for differentiation, DU-145; type: cell-based, human; details: VPA treatment
Description: as §1

F9 teratocarcinoma cells [6] = test: 3H-thymidine incorporation in F9 cells; type: cell-based; details: 1 mM VPA, 36 h, then 12 h 3H-thymidine
Excerpt: (§2) Cell differentiation is associated with cell cycle arrest, morphological alterations and the appearance of expression of markers of the differentiated phenotype. Morphological alterations where determined by microscopic evaluation of F9 and HT-29 cells. One parameter of differentiation, the cell cycle arrest, was shown in F9 teratocacrcinoma, estrogen independent MT-450 breast cancer and HT-29 colonic carcinoma cells by means of the reduced incorporation of ^3H-thymidine into cultured cells. […] 37 kBq of ^3H-thymidine were added for additional 12 h of culture. MT-450 cells were cultured for 72 h prior to a 1 h ^3H-thymidine labelling period. Incorporation of ^3H-thymidine into DNA was determined by automatic cell harvesting and liquid scintillation counting. […] The dose-response for the reduction of thymidine incorporation into HT-29 cells (FIG. 5A) was determined by the same experimental procedure. In addition, the induction of a cell differentiation marker was shown in F9 teratocarcinoma cells (FIG. 5B).

U87MG cells = test: Morphological evaluation for differentiation, U87MG; type: cell-based, human; details: VPA treatment
Description: as §1

[7] = tested on: human cancer cell cultures; test: Reduction of total cellular biomass (Sulforhodamine B); type: cell-based; details: 48 hours VPA
Description: Background OD of complete medium with 5% FBS fixed and stained as described above was also determined in 12 separate wells.

[8] = tested on: SW-1116 colon cancer cells; test: Morphological evaluation for cell death, SW-1116; type: cell-based, human; details: 1 mM VPA
Description: as §1

[9] = tested on: breast, ovarian, squamous cell and renal carcinoma cells; test: Cell viability assay (MTT); type: cell-based; details: 1 or 3 mM, 40 h or 70 h
Description: Human MDA-MB468, MDA-MB453 and SKBR3 breast carcinoma cells, A431 squamous cell carcinoma cells, and SKOV3 ovarian carcinoma cells were maintained in Dulbecco's modified Eagle's medium (DMEM, BioWhittaker, Verviers, Belgium) supplemented with 10% heat inactivated fetal bovine serum (FBS), 2 mM L-glutamine, 100 units/ml penicillin, and 100 μg/ml streptomycin. Human MCF7 breast carcinoma cells were grown in RPMI medium supplemented as described above.
Renal cell carcinoma (Renca) cells stably transfected with plasmid pZeoSV2/lacZ encoding E. coli β-galactosidase (Renca-lacZ cells) (Maurer-Gebhard et al., Cancer Res. 58: 2661-2666, 1998) were grown in RPMI-1640 medium supplemented with 8% FBS, 2 mM L-glutamine, 100 U/ml penicillin, 100 μg/ml streptomycin, 0.25 mg/ml Zeocin. […]
Tumor cells were seeded in 96 well plates at a density of 1×10^4 cells/well in normal growth medium. […] After solubilization of the formazan product, the absorption at 590 nm was determined in a microplate reader (Dynatech, Denkendorf, Germany) and the relative amount of viable cells in comparison to cells grown without the addition of valproic acid was calculated.

[10] = tested on: HT-29 colonic carcinoma cells; test: 3H-thymidine incorporation in HT-29 cells; type: cell-based; details: 1 mM VPA, 36 h, then 12 h 3H-thymidine
Excerpt: as §2

[11] = tested on: MT-450 breast cancer cells; test: 3H-thymidine incorporation in MT-450 cells; type: cell-based; details: 1 mM VPA, 72 h, then 1 h 3H-thymidine
Excerpt: as §2

CC(/C=C/C(=O)NO)=C\[C@@H](C)C(=O)c1ccc(N(C)C)cc1 [TSA, trichostatin A]
Relief of transcriptional repression (increase in reporter gene activity) [1]: relief of repression
Accumulation of hyperacetylated histones H3 and H4 [2]: induce the accumulation of hyperacetylated histones H3 and H4
Activation of the reporter gene together with the PPARδ ligand cPGI [3]: synergistic activation
Appearance of nuclear AP-2 protein (F9 teratocarcinoma cells [4]): induce nuclear AP-2 protein

O=C1N[C@@H](Cc2ccccc2)C(=O)N2CCC[C@@H]2C(=O)N[C@@H](CCCCCC(=O)[C@@H]2CO2)C(=O)N[C@H]1Cc1ccccc1 [Trapoxin, trapoxin] (cyclo(FF[dP][Aoe]))
Relief of transcriptional repression (increase in reporter gene activity) [1]: relief of repression

CCCC(CCC)C(=O)O [VPA, 2-n-propylpentanoic acid]
Change of cell morphology (PC-3 cells): change their normal round morphology to a long fibroblast-like shape
Change of cell morphology [5]: change their normal round morphology to a long fibroblast-like shape
Reduction of the rate of thymidine incorporation (F9 teratocarcinoma cells [6]): 48±5% and 48%
Accumulation of hyperacetylated histones H3 and H4 [2]: induce hyperactylation of histones H3 and H4
Change of cell morphology (U87MG cells): increase in length and develop spider-like filamentous extensions
Total cellular biomass [7]: reduces the total cellular biomass
Appearance of nuclear AP-2 protein (F9 teratocarcinoma cells [4]): induce nuclear AP-2 protein
Cell death by morphological signs [8]: most cells were dying
Viability of tumor cells (MTT) [9]: reduces the viability
Reduction of the rate of thymidine incorporation [10]: 52±8%
Reduction of the rate of thymidine incorporation [11]: 63±8%

CCCC(=O)[O-].[Na+] [sodium butyrate]
Accumulation of hyperacetylated histones H3 and H4 [2]: induce the accumulation of hyperacetylated histones H3 and H4
Appearance of nuclear AP-2 protein (F9 teratocarcinoma cells [4]): weak
